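Protocol summary: plate cells (96-well), add compound at 5 concentrations, incubate 48 h, interpolate endpoints linearly. GI50 is the concentration that inhibits growth by half.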 Activity calls are given as the source filed them. No stated cut-off is given here; in the data, active = GI50 up to about 1.1 µM and inactive = higher.
What was measured:
Experiment in all cases: NCI-60 cell line screen, 48 h
SN12C = system: SN12C
NCI/ADR-RES = system: NCI/ADR-RES
TK-10 = system: TK-10
DU-145 = system: DU-145
HOP-62 = system: HOP-62
NCI-H23 = system: NCI-H23
OVCAR-5 = system: OVCAR-5
SK-OV-3 = system: SK-OV-3
UACC-62 = system: UACC-62
SW-620 = system: SW-620
OVCAR-3 = system: OVCAR-3
MOLT-4 = system: MOLT-4
OVCAR-8 = system: OVCAR-8
RXF 393 = system: RXF 393
MDA-MB-231 = system: MDA-MB-231
SK-MEL-5 = system: SK-MEL-5
MDA-MB-435 = system: MDA-MB-435
HOP-92 = system: HOP-92
NCI-H522 = system: NCI-H522

Compound	GI50 (SN12C)	GI50 (NCI/ADR-RES)	GI50 (TK-10)	GI50 (DU-145)	GI50 (HOP-62)	GI50 (NCI-H23)	GI50 (OVCAR-5)	GI50 (SK-OV-3)	GI50 (UACC-62)	GI50 (SW-620)	GI50 (OVCAR-3)	GI50 (MOLT-4)	GI50 (OVCAR-8)	GI50 (RXF 393)	GI50 (MDA-MB-231)	GI50 (SK-MEL-5)	GI50 (MDA-MB-435)	GI50 (HOP-92)	GI50 (NCI-H522)
COc1ccc(-c2nc(-c3cnccn3)n(COCCO)n2)cc1	> 100 µM (inactive)	> 100 µM (inactive)	> 100 µM (inactive)	> 100 µM (inactive)	> 100 µM (inactive)	> 100 µM (inactive)	> 100 µM (inactive)	> 100 µM (inactive)	> 100 µM (inactive)	> 100 µM (inactive)	> 100 µM (inactive)	> 100 µM (inactive)	> 100 µM (inactive)	> 100 µM (inactive)	> 100 µM (inactive)	> 100 µM (inactive)	> 100 µM (inactive)	> 100 µM (inactive)	> 100 µM (inactive)
C/C(=N\Nc1nc2ccccc2[nH]1)c1ccncn1	0.275 µM (active)	0.153 µM (active)	3.43 µM (inactive)	0.0843 µM (active)	0.0951 µM (active)	0.0973 µM (active)	4.11 µM (inactive)	0.49 µM (active)	0.0764 µM (active)	0.134 µM (active)	0.25 µM (active)	0.17 µM (active)	0.124 µM (active)	0.413 µM (active)	3.64 µM (inactive)	0.157 µM (active)	0.154 µM (active)	0.0715 µM (active)	0.104 µM (active)
COC(=O)/C=C\C(C#N)(C#N)/N=C/c1ccc(Br)s1	15.2 µM (inactive)	18.6 µM (inactive)	2.38 µM (inactive)	10.7 µM (inactive)	17.6 µM (inactive)	9.2 µM (inactive)	9.64 µM (inactive)	19.2 µM (inactive)	10.7 µM (inactive)	2.07 µM (inactive)	11 µM (inactive)	2.07 µM (inactive)	3.98 µM (inactive)	2.03 µM (inactive)	2.18 µM (inactive)	11.9 µM (inactive)	5.56 µM (inactive)	1.93 µM (inactive)	1.07 µM (active)
Cc1ccc2c(C(=O)c3c(C)n(CCN4CCOCC4)c4ccccc34)cccc2c1	31.3 µM (inactive)	12.4 µM (inactive)	23.7 µM (inactive)	27.5 µM (inactive)	27.3 µM (inactive)	14.8 µM (inactive)	23.2 µM (inactive)	12.8 µM (inactive)	14.3 µM (inactive)	0.685 µM (active)	3.54 µM (inactive)	3.88 µM (inactive)	10.8 µM (inactive)	13.9 µM (inactive)	17.3 µM (inactive)	0.581 µM (active)	2.29 µM (inactive)	19.1 µM (inactive)	10.6 µM (inactive)

Reference: ChEMBL document CHEMBL1201862, “PubChem BioAssay data set” (2004)
